Assay results: patent publication US5116851A, “Pharmaceutical composition and method for treating cardiovascular diseases using substituted anilides and sulfonamides” (E. R. Squibb & Sons, Inc., priority 1990, dated 1992)
Where a name gives a salt, the structure may show the parent alone.

Columns and labels:
[1] = system: Ischemic and Nonischemic Isolated Rat Heart; assay: Isolated perfused rat heart (Langendorff), global ischemia/reperfusion: cardiac function, flow and LDH release; parameters: species or system rat (male Sprague-Dawley); FLOW (coronary blood flow): unit not given here; settings: for DP (Double Product, HR x LVDP / 1,000) / FLOW (coronary blood flow) / HR (Heart Rate) / LVDP (Left Ventricular Developed Pressure) / LDH (Lactate Dehydrogenase Release) / LDH/DP / cardioprotection compared with diltiazem: 1 μM; for LDH (Lactate Dehydrogenase Release): Postischemia, cumulative over 30 min reperfusion, per g preischemia heart weight, lower = greater cardioprotection; for LDH/DP: ratio of cardioprotection to cardiodepression, lower = greater selectivity; for cardioprotection compared with diltiazem: post-ischemia LDH
Method: Lactate dehydrogenase is an enzyme released in the heart during an ischemic event and is an index of cardiac cell necrosis. In the Grover et al. model, this is measured during reperfusion and an agent which provides for lower release levels of LDH is considered to offer greater cardioprotection since lower LDH indicates a smaller infarct size. Cardiac function is determined using the double product (DP) of heart rate times the left ventricular developed pressure (LVDP) divided by 1,000.
The lower the value for DP before ischemia for a given agent, the more cardiodepressant it is considered to be.
Male Sprague-Dawley rats (450-550 g) were used in all experiments. The rats were anesthetized using 30 mg/kg sodium pentobarbital (i.p.). They were intubated and then treated with i.v. heparin (1000 U/kg). While being mechanically ventilated, their hearts were perfused in situ via retrograde cannulation of the aorta. The hearts were then excised and quickly moved to a Langendorff apparatus where they were perfused with Krebs-Henseleit bicarbonate buffer (112 mM NaCl, 5 mM KCl, 1.2 mMMg SO4, 1 mM KH2 PO4, 1.25 mM CaCl2, 11.5 mM dextrose, and 2 mM pyruvate) at a constant pressure (75 mm Hg). A water filled latex balloon attached to a metal cannula was then inserted into the left ventricle and connected to a Statham pressure transducer for measurement of left ventricular pressure. The hearts were allowed to equilibrate for 15 minutes at which time end diastolic pressure (EDP) was adjusted to 5 mm Hg and this was maintained for 5 minutes. Pre-ischemia or pre-drug function, heart rate and coronary blood flow (extracorporeal electromagnetic flow probe, Carolina Medical Electronics, King, N.C.) were then measured. Cardiac function was determined using the double product of heart rate (HR) times left ventricular developed pressure (LVDP) divided by 1,000.
All of these hearts were treated with their respective drugs or vehicle for ten minutes. At this time, post-drug cardiac function and flow were measured and then the hearts were made globally ischemic by shutting off the buffer perfusion. The ischemia was maintained for 25 minutes at which time reperfusion with nondrug treated buffer was instituted. Reperfusion was maintained for 30 minutes and at this time reperfusion function and flow were again determined.
At the end of the reperfusion period, the reperfusion buffer was sampled for cumulative LDH release as previously described. LDH release was expressed as U/g preischemia heart weight for the 30 minute collection period. LDH release is a sensitive index for loss of cell viability. Determination of the relationship between pre-ischemic, post-drug cardiac function was made by dividing the double product (HR ×LVDP/1000) by the cumulative LDH release.
All data were analyzed using a one way analysis of variance. Multiple comparisons were done using the Duncan procedure. All data are expressed as the mean±SE.
The pre-ischemia DP values are a measure of the cardiodepression of the drug on the healthy cardiac tissue.
The post-ischemia LDH values are a measure of the cardioprotection or anti-ischemic activity of the drug. In this case, lower values indicate greater anti-ischemic activity or greater cardioprotection.
The LDH/DP values are the ratio of cardioprotection to cardiodepression, the lower values indicating a greater selectivity for anti-ischemic activity.
The post-ischemia DP indicates cardiodepression after the ischemic episode and the lower DP values here are indicative of agents which still remained in the cardiac tissue for more than 30 minutes post ischemia. [drawing 16]

[2] = system: isolated canine cardiac Purkinje fibers; assay: Calcium-dependent slow response action potential amplitude (SAPA), standard microelectrode techniques; assay type: cell-based; settings: Canis lupus familiaris, read-out: IC50 in reducing slow response action potential amplitude (SAPA)
Method: (§1) The calcium channel blocking and sodium entry blocking activities of compounds of the present invention were tested using standard microelectrode techniques in isolated canine cardiac Purkinje fibers as reported in J. L. Bergey et al., "Antiarrhythmic, hemodynamic, and cardiac electrophysiological evaluation of N-(2,6-dimethylphenyl)-N'-[3-(1-methylethylamino)propyl]-urea), (Wy 42,362)", Arzneim -Forsch, 33:1258, 1983). […] Depression of this parameter indicates depression of calcium entry into cardiac tissue. […] Significant depression of the upstroke velocity (vmax) indicates the blocking of sodium entry into cardiac tissue.

rabbit aorta = assay: Reduction of tone of rabbit aorta by high potassium (Vasc. Ca^++ Block); assay type: cell-based; settings: Oryctolagus cuniculus; read-out: IC50 in reducing tone of rabbit aorta by high potassium (Vasc. Ca^++ Block)
Description: |(SAPA), in reducing maximum upstroke velocity (Vmax) |and in reducing tone of rabbit aorta by high potassium |(Vasc. Ca^++ Block)

[3] = system: isolated canine cardiac Purkinje fibers; assay: Normal action potential parameters incl. upstroke velocity (Vmax; sodium entry), standard microelectrode techniques; assay type: cell-based; settings: for Vmax (velocity of upstroke): in V/s (unit assumed)
Method: as §1

[4] = Postischemia (30 min.), occlusion 25 minutes, reperfusion 30 minutes
[5] = Preischemia (Post Drug), lower = more cardiodepressant

Structure (SMILES) | DP (Double Product, HR x LVDP / 1,000) [1, 4] | FLOW (coronary blood flow) [1, 4] | HR (Heart Rate) [1, 4] | LVDP (Left Ventricular Developed Pressure) [1, 4] | LDH (Lactate Dehydrogenase Release) [1] | FLOW (coronary blood flow) ([1]; Preischemia (Post Drug)) | HR (Heart Rate) ([1]; Preischemia (Post Drug)) | LVDP (Left Ventricular Developed Pressure) ([1]; Preischemia (Post Drug)) | DP (Double Product, HR x LVDP / 1,000) [1, 5] | LDH/DP [1] | also measured
COc1ccc([C@@H]2Sc3ccccc3N(CCN(C)C)C(=O)[C@@H]2OC(C)=O)cc1 [Diltiazem, reference compound] | 24 | 17 | 231 beats/min | 104 mmHg | 10 U/g | 22 | 217 beats/min | 45 mmHg | 10 | 0.98 | ischemic selectivity among diltiazem, nifedipine and verapamil ([1]; Grover et al. methodology): greatest ischemic selectivity
COc1ccc(CSc2ccccc2N(CCCN(C)C)C(=O)Cc2ccccc2)cc1 [Example 2, N-[3-(Dimethylamino)propyl]-N-[2-[[(4-methoxyphenyl)methyl]thio]phenyl]benzeneacetamide, monohydrochloride] | 14 | 11 | 188 beats/min | 73 mmHg | 8.9 U/g | 20 | 219 beats/min | 135 mmHg | 29 | 0.30 | 
CN(C)CCCN(C(=O)Cc1ccccc1)c1ccccc1SCc1ccccc1.Cl [Example 3, N-[3-(Dimethylamino)propyl]-N-[2-[(phenylmethyl)thio]phenyl]benzeneacetamide, monohydrochloride] | 22 | 11 | 238 beats/min | 93 mmHg | 5.2 U/g | 18 | 243 beats/min | 79 mmHg | 19 | 0.30 | IC50 [2]: 1500 nM; IC50 (rabbit aorta): 1700 nM; APD 50 (action potential duration @ 50% repolarization) ([3]; 1 × 10^-5): 123 ± 2; APD90 (action potential duration @ 90% repolarization) ([3]; 1 × 10^-5): 271 ± 8; PP (peak potential) ([3]; 1 × 10^-5): 7 ± 1; RP (resting potential) ([3]; 1 × 10^-5): 84 ± 1; Vmax (velocity of upstroke) ([3]; 1 × 10^-5): 156 ± 11; APD 50 (action potential duration @ 50% repolarization) ([3]; 1 × 10^-6): 181 ± 5; APD90 (action potential duration @ 90% repolarization) ([3]; 1 × 10^-6): 282 ± 2; PP (peak potential) ([3]; 1 × 10^-6): 32 ± 1; RP (resting potential) ([3]; 1 × 10^-6): 88 ± 1; Vmax (velocity of upstroke) ([3]; 1 × 10^-6): 401 ± 16; APD 50 (action potential duration @ 50% repolarization) ([3]; 3 × 10^-6): 125 ± 3; APD90 (action potential duration @ 90% repolarization) ([3]; 3 × 10^-6): 251 ± 1; PP (peak potential) ([3]; 3 × 10^-6): 26 ± 1; RP (resting potential) ([3]; 3 × 10^-6): 88 ± 1; Vmax (velocity of upstroke) ([3]; 3 × 10^-6): 286 ± 9; IC50 ([3]; Canis lupus familiaris, purkinje, sodium entry, read-out: IC50 in reducing maximum upstroke velocity (Vmax)): 3800 nM; cardioprotection compared with diltiazem [1]: offered more cardioprotection than diltiazem
CN(C)CCN(C(=O)Cc1ccccc1)c1ccccc1SCc1ccccc1.Cl [Example 4, N-[2-(Dimethylamino)ethyl]-N-[2-[(phenylmethyl)thio]phenyl]benzeneacetamide, monohydrochloride] | 15 | 15 | 239 beats/min | 60 mmHg | 21 U/g | 20 | 236 beats/min | 123 mmHg | 30 | 0.79 | 
CN(C)CCCCN(C(=O)Cc1ccccc1)c1ccccc1SCc1ccccc1 [Example 5, N-[4-(Dimethylamino)butyl]-N-[2-[(phenylmethyl)thio]phenyl]benzeneacetamideoxalate (1:1) salt] | 10 | 11 | 180 beats/min | 51 mmHg | 16.5 U/g | 15 | 253 beats/min | 115 mmHg | 29 | 0.57 | 
CN(C)CCCN(C(=O)Cc1ccccc1)c1ccccc1OCc1ccccc1.O=C(O)C(=O)O [Example 6, N-[3-(Dimethylamino)propyl]-N-[2-(phenylmethoxy)phenyl]benzeneacetamide, oxalate salt (1:1)] | 20 | 10 | 222 beats/min | 89 mmHg | 5.7 U/g | 15 | 230 beats/min | 113 mmHg | 26 | 0.22 | 
CN(C)CCCN(C(=O)c1ccccc1)c1ccccc1SCc1ccccc1.Cl [Example 7, 2'-(Benzylthio)-N-[3-(dimethylamino)propyl]benzanilide, hydrochloride] | 15 | 8 | 220 beats/min | 72 mmHg | 6.7 U/g | 11 | 218 beats/min | 132 mmHg | 29 | 0.24 | 
COc1cc(SCc2ccccc2)c(N(CCCN(C)C)C(=O)Cc2ccccc2)cc1OC [Example 8, N-[3-(Dimethylamino)propyl]-N-[4,5-dimethoxy-2-sulfonyl),[(phenylmethyl)thio]phenyl]benzeneacetamide, oxalate (1:1) salt] | 17 | 8 | 246 beats/min | 71 mmHg | 3.7 U/g | 19 | 216 beats/min | 65 mmHg | 14 | 0.26 | 
COc1ccc(CSc2cc(Cl)ccc2N(CCCN(C)C)C(=O)Cc2ccccc2)cc1.Cl [Example 9, N-[3-(Dimethylamino)propyl]-N-[4-chloro-2-[[(4-methoxyphenyl)methyl]thio]phenyl]benzeneacetamide, monohydrochloride] | 11 | 9 | 214 beats/min | 52 mmHg | 8.2 U/g | 18 | 226 beats/min | 126 mmHg | 29 | 0.29 | cardioprotection compared with diltiazem [1]: comparable to diltiazem in cardioprotection
CN(C)CCCCN(C(=O)C=Cc1ccccc1)c1ccccc1SCc1ccccc1 [Example 24, N-[4-(Dimethylamino)butyl]-3-phenyl-N-[2-[(phenylmethyl)thio]phenyl]-2-propenamide, oxalate salt (1:1)] |  |  |  |  |  |  |  |  |  |  | IC50 [2]: 2600 nM; IC50 (rabbit aorta): 1200 nM
